{"source": "patent US20180289666A1", "about": "“FLAVONOLIGNANS FOR TREATMENT OF AUTOIMMUNE INFLAMMATORY DISEASES” (Macau University of Science and Technology, priority 2017, published 2018)", "key": {"[1]": {"tested_on": "MCD diet induced NASH mice", "assay": "MCD diet induced NASH mice: body and liver weight, liver histology, serum and liver biomarkers", "type": "in vivo, C57Bl/6 mice", "conditions": "for Ballooning (histological score) / Inflammation (histological score) / Steatosis (histological score): MCD diet induced NASH mice, n = 6-8", "description": "Male wild-type (WT) mice C57Bl/6 were fed either MCS chow diet (Trophic Animal Feed High-tech Co., Ltd, China 20, #TP 3005GS); MCD diet (Trophic Animal Feed High-tech Co., Ltd, China, #TP 3005G) for 8 weeks. Animals were randomly divided into four groups (n=10): 1) controls, fed a standard control MCS diet; 2) […] fed a high-fat MCD diet; 3) rats fed the MCD diet treated with Silybin (150 mg/kg, oral) and 4) rats fed the MCD diet treated with Silybin (300 mg/kg, oral). Silybin was dissolved with solvent of 35% PEG400: 15% Cremophor EL: 5% ethanol: 45% saline. Body weight was intermittently monitored during the diet-induction period and every two or three days during the intervention period.\nAt the end of the 8 weeks, mice were sacrificed under ether anesthesia. The liver were immediately removed and weighed. A large portion of liver was snap-frozen in the liquid N2 with remaining tissue was fixed in 10% buffer formalin, processed and embedded in paraffin for histological examination after H&E staining. For evaluation of steatohepatitis, the level of ALT, AST, TG, and TC were determined according to manufacturer's instructions with commercial kits. Moreover, histological assessment and scoring according to standardized criteria were carried out by a pathologist blinded to the study (Kleiner, D. E., et al., Hepatology, 2005, 41(6): p. 1313-21). The cytokines levels in serum were measured using commercially available ELISA kits including TNF-α, and IL-6 as well as SOD."}, "[2]": {"tested_on": "key enzymes involved in lipid metabolism in liver", "assay": "Real-time PCR and Western blot of lipid metabolism enzymes in liver of AIA rats", "type": "in vivo, Sprague-Dawley (SD) rats", "description": "Total RNA was isolated from the frozen liver of the AIA model using TRIzol® Reagent (Life technology, USA). mRNA was purified by binding to poly(dT) magnetic beads using Dynabeads® mRNA DIRECT™ Kit (Life technology, Norway) and reverse transcribed using SuperScript® III reverse transcriptase (Invitrogen, California, USA) as described by the manufacturer. Quantitative real-time PCR was performed using SYBR Green (Sigma-Aldrich, Louis, USA) on the ViiA™ 7 Real-Time PCR System (Applied Biosystems, FosterCity, USA). Quantitative RT-PCR analysis was performed using SYBR Green reagents and ViiA™ 7 Real-Time PCR System. Gene expression levels were calculated from cycle threshold (Ct) values and normalized with control gene GAPDH.\nLiver tissue homogenates of AIA and MCD animal models were lysed in RIPA buffer (50 mM pH 7.4 Tris, 150 mM NaCl, 1% Triton X-100, 1% sodium deoxycholate, 0.1% SDS, sodium orthovanadate, sodium fluoride and EDTA) containing protease inhibitor cocktails (Roche Life Science, USA). Protein concentration was determined using the BCA protein assay kit (BIO-RAD, USA). Equal amounts of total protein were resolved using SDS-PAGE and transferred onto PVDF membranes (Millipore, Darmstadt, Germany). After incubation in a blocking solution containing with 5% (w/v) skim milk (Nestle Carnation, New Zealand) in TBST buffer (10 mM tris-buffered saline and 0.1% Tween20) for 1 h at room temperature and incubated with primary antibodies overnight at 4° C. The membranes were washed three times with 1×TBST solutions and incubated with the appropriate secondary antibodies at room temperature for 45 min, and subsequently visualized with an enhanced chemiluminescence detection kit (SuperSignal™ West Pico Chemiluminescent Substrate, Thermo Scientific, USA). β-actin was used as the loading control for the experimental data analysis."}, "AIA rats [3]": {"tested_on": "AIA rats", "conditions": "for ESR: day 42, read at 15 min, ± SD"}, "AIA rats [4]": {"tested_on": "AIA rats", "assay": "Assessment of liver abnormality and lipid profile in AIA model", "type": "in vivo, Sprague-Dawley (SD) rats", "description": "Serum ALT, AST, ALP, GGT and total bilirubin were measured by automatic biochemical analyzer (Toshiba Corporation, Tokyo, Japan). Lipids profile including TG, TC, HDL-C, LDL-C/vLDL-C and free fatty acids were measured in the serum. After animals were sacrificed, tissues of liver were fixed in 10% formalin solution, cleared in xylene, embedded in paraffin blocks from which 5 micron-thick sections were obtained. Sections were stained with H&E dye and examined for pathological changes under light microscope by a pathologist blind to the specimens."}, "[5]": {"conditions": "MCD diet NASH mice, versus vehicle treated MCD diet model group"}, "[6]": {"conditions": "AIA rats, Silybin 200 mg/kg oral, day 42"}}, "note": "Like-named read-outs stand apart in the source and are kept apart here.", "data": [{"smiles": "COc1cc([C@H]2Oc3cc([C@H]4Oc5cc(O)cc(O)c5C(=O)[C@@H]4O)ccc3O[C@@H]2CO)ccc1O", "note": "(stereo in doubt) [Silybin]", "values": [{"measurement": "body weight", "setting": "[1]; MCD diet NASH mice, Silybin 300 mg/kg", "value": "no effect"}, {"measurement": "liver/body weight ratio", "setting": "[1]; MCD diet NASH mice, Silybin 300 mg/kg, P<0.05", "value": "moderate decrease"}, {"measurement": "scores of steatosis, inflammation and ballooning", "setting": "[1]; MCD diet NASH mice, Silybin treated versus MCD diet group, P<0.01", "value": "lower scores"}, {"measurement": "cytokines levels", "setting": "[1]; [5]", "value": "significantly restored"}, {"measurement": "lipid profiles", "setting": "[1]; [5]", "value": "significantly restored"}, {"measurement": "oxidative stress levels", "setting": "[1]; [5]", "value": "significantly restored"}, {"measurement": "serum transaminase", "setting": "[1]; [5]", "value": "significantly restored"}, {"measurement": "Ballooning (histological score)", "setting": "[1]; Silybin 150 mg/kg oral", "value": "0.96 ± 0.04"}, {"measurement": "Inflammation (histological score)", "setting": "[1]; Silybin 150 mg/kg oral", "value": "0.92 ± 0.10"}, {"measurement": "Steatosis (histological score)", "setting": "[1]; Silybin 150 mg/kg oral", "value": "1.00 ± 0"}, {"measurement": "Ballooning (histological score)", "setting": "[1]; Silybin 300 mg/kg oral", "value": "0.83 ± 0.09"}, {"measurement": "Inflammation (histological score)", "setting": "[1]; Silybin 300 mg/kg oral", "value": "0.88 ± 0.12"}, {"measurement": "Steatosis (histological score)", "setting": "[1]; Silybin 300 mg/kg oral", "value": "0.92 ± 0.13"}, {"measurement": "expression of aP2 in the liver", "setting": "[2]; AIA rats liver", "value": "reduced"}, {"measurement": "mRNA and/or protein expression of LPL, CYP7A1, and SREBP1 in liver", "setting": "[2]; AIA rats liver", "value": "greatly repressed"}, {"measurement": "overexpression of SREBP1", "setting": "[2]; AIA rats liver", "value": "not modulated"}, {"measurement": "increased mRNA levels of hepatic lipogenesis genes (SREBP1, LXR, FXR)", "setting": "[2]; AIA rats liver, real-time PCR", "value": "attenuated"}, {"measurement": "changes of key lipogenic enzyme in both gene and protein levels", "setting": "[2]; AIA rats liver, real-time PCR and Western blot", "value": "ameliorated changes"}, {"measurement": "mRNA level of LPL in liver", "setting": "[2]; AIA rats, real-time PCR, increase in the AIA model group", "value": "reversed"}, {"measurement": "ESR", "setting": "AIA rats [3]; AIA rats, Silybin 100 mg/kg oral daily", "value": "34.35 ± 9.25", "unit": "mm"}, {"measurement": "ESR", "setting": "AIA rats [3]; AIA rats, Silybin 200 mg/kg oral daily", "value": "significantly (P<0.001) reduced"}, {"measurement": "ESR", "setting": "AIA rats [3]; AIA rats, Silybin 200 mg/kg oral daily, listed as SB", "value": "28.09 ± 11.14", "unit": "mm"}, {"measurement": "arthritis score", "setting": "AIA rats [3]; [6]", "value": 7.60}, {"measurement": "paw volume", "setting": "AIA rats [3]; [6]", "value": 3.02, "unit": "mL"}, {"measurement": "relative organ weight ratio (such as liver index, spleen index, kidney index, lung index)", "setting": "AIA rats [3]; rat, in vivo", "value": "reversed changes"}, {"measurement": "histopathological assessment of liver tissue", "setting": "AIA rats [4]; H&E liver sections", "value": "preserved the normal architecture of hepatocytes with light congestion of central vein"}, {"measurement": "dyslipidemia (serum lipid profile)", "setting": "AIA rats [4]; Silybin 200 mg/kg", "value": "successfully improved"}, {"measurement": "ALP level", "setting": "AIA rats [4]; Silybin 200 mg/kg, P<0.001", "value": "markedly reduced"}, {"measurement": "AST level", "setting": "AIA rats [4]; Silybin 200 mg/kg, P<0.05", "value": "markedly reduced"}]}]}
